Laboratory results taken from patent US9782412B2, “Preventive and/or therapeutic agent of immune disease” (TAIHO PHARMACEUTICAL CO., LTD., priority 2015, dated 2017).
Read-outs that look alike come from different tables or passages of the source.

Legend:
[1] = system: RBL-2H3 cells; assay: Inhibitory activity against allergic reaction using RBL-2H3 cells (PGD2 production); type: cell-based, rat; settings: anti-DNP IgE / DNP-BSA, read-out: PGD2 production inhibitory concentration (IC50, (nM))
Procedure: Rat basophilic leukemia cells, RBL-2H3, were suspended in MEM medium containing 10% FBS, and then the cells were inoculated in a culture plate, and cultured in a CO2 incubator (Sanyo Electric Biomedical Co., Ltd.) at 37° C. for 12 hours. After a culture supernatant was removed and the cells were washed, an anti-DNP-mouse IgE (Alpha Diagnostic Inc.) solution was added thereto, and the cells were cultured in the CO2 incubator for 1 hour. After a culture supernatant was removed and the cells were washed, an MEM medium was added thereto.
Further, a DNP-BSA (LSL, Inc.) solution was added thereto and the cells were cultured in the CO2 incubator for 15 minutes. A culture supernatant was collected and reacted, with PGD2-MOX EIA kit (Cayman Chemical Inc.) on the basis of the protocol attached thereto, and absorbance was measured by SUNRISE RAINBOW THERMO (TECAM Inc.).

[2] = Influence on body weight of SD rat by repeated administration; type: in vivo; settings: for Relative body weight change ratio (%): 750 mg/kg orally once a day, two weeks
Procedure: The rats were grouped as follows, with four animals in each group, by a random classification method such that the average body weights of the respective groups would be almost uniform (Day 1).
The body weight change (BWC) was used as an index indicating the systemic toxicity caused by the compound administration. The BWC was calculated by the following formula. BWC (%)=([(Rat body weight on 14 days after the administration)−(Rat body weight at the time of grouping)]/(Rat body weight at the time of grouping))×100
The relative body weight change ratios in the each compound-administered groups were calculated by the following formula when the BWC in the vehicle-administered group was set as 1, and the results are indicated in Table 25. Relative body weight change ratio (%)=(BWC in the compound-administered group)/BWC in the vehicle-administered group)×100

[3] = system: TNP-IgE mice; assay: Mouse antigen-induced dermatitis model; type: in vivo; settings: for Ear swelling control ratio (%): 30 minutes before allergen, 2 hours after antigen
Description: Type I allergy models accompanied by a skin symptom (a dermatitis model) were produced, with TNP-IgE mice (CLEA Japan, Inc.). The mice are genetically modified BALB/c mice that constantly produce an IgE specific to hapten TNP (trinitrophenol) which is widely used as an allergen (antigen). It is possible to induce an allergic reaction in the mice, only by administering an allergen, without carrying out an immunization. […] An average value of thickening values of both ears was obtained as a value of an individual (provided that a previous value before the allergen application was 0 mm).
Ear swelling control ratio (%) was calculated by the following formula. Ear swelling control ratio (%)=(1−(Average value of ear thickening of compound administered group)/(Average value of ear thickening of vehicle administered group))×100

[4] = molecular target: T1, phosphorylated BTK protein in Ramos cells (Homo sapiens, UniProt Q06187); assay: Inhibitory activity against B-cell activation using Ramos cells (BTK phosphorylation); type: cell-based; settings: anti-human IgM stimulation, pY223 Western blotting, read-out: Phosphorylated BTK inhibitory concentration (IC50, (nM))
T1 construct: endogenous in cells; host or cells: Ramos cells
T1 sequence (Q06187 whole entry): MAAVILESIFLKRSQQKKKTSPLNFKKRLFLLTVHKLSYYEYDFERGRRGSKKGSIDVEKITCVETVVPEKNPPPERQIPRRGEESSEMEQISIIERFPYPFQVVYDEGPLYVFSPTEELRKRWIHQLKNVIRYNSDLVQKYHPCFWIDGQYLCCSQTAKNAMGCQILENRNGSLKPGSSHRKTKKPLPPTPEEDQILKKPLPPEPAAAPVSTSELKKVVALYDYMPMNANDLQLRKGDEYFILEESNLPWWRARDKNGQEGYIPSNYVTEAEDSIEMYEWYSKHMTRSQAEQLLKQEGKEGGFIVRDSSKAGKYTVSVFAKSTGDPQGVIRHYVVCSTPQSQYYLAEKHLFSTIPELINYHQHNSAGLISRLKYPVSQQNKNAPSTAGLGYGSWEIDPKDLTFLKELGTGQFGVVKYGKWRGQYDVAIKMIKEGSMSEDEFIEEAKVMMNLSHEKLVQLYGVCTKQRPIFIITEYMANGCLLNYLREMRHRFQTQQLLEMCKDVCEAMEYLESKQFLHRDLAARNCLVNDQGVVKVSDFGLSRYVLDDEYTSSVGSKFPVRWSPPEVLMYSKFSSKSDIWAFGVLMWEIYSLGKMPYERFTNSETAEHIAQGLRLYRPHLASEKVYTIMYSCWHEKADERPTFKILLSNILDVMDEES
Procedure: The human B-cell lymphoma-derived cell line, Ramos cells were suspended in RPMI1640 medium, and then the cells were inoculated in a culture plate at a concentration of 2.0×10^6 (cells/well). The cells were cultured in a CO2 incubator (Sanyo Electric Biomedical Co., Ltd.) at 37° C. for 12 hours. […] Then, 10 minutes of stimulation was provided with Goat F(ab′)2 anti-human IgM antibody-UNLB (southern biotech Corp.). Thereafter, the cells were harvested, and 50 μL of (a cell extract (NP-40; Invitrogen, Inc.) containing 1×protease inhibitor (Hoffmann-La Roche AG) and 1×phosphatase cocktail inhibitor (Sigma-Aldrich Co.)) was added to the cell pellets. The cell pellets were left to stand for 10 minutes on ice. The amount of protein in the collected cell extract was quantitatively analyzed by a DC protein assay (Bio-Rad Laboratories, Inc.), and 20 μg of proteins per lane was applied to a Criterion TGX™ (Bio-Rad Laboratories, Inc.). After electrophoresis was performed, Western blotting was performed with Trans-Blot™ Turbo™ (Bio-Rad Laboratories, Inc.). Thereafter, phosphorylated BTK protein and BTK protein were detected with LAS4000 (GE Healthcare, Inc.) with a BTK phosphor (pY223) antibody (EPITOMICS Inc.) and a BTK antibody (Abcam, plc.).

[5] = system: MRL/lpr mice; assay: Mouse systemic lupus erythematosus model; type: in vivo; settings: at the doses used in the test
Procedure: MRL/lpr mice (Japan SLC, Inc.) were used to evaluate drug efficacy in this test, since the mice are widely used as mice models in which symptoms of autoimmune diseases similar to human systemic lupus erythematosus spontaneously express. A grouping was carried out on the basis of swellings of lymph nodes in submaxilla and axilla at 14 weeks old, and once-daily oral administration was continued for 42 days from the day of grouping, with vehicle or Example Compound 13 suspension. Urea nitrogen concentration and anti-dsDNA antibody concentration in peripheral blood at the final administration day were measured.

[6] = system: mouse collagen-induced arthritis model; assay: Mouse collagen-induced arthritis model (therapeutic effect), Test Example 8; type: in vivo; settings: therapeutic administration, FIG. 3
Procedure: (§1) Seven-week-old male/DBA/1 mice (CHARLES RIVER LABORATORIES JAPAN, INC.) were intracutaneously injected in the dorsum with 100 μL/body of an equal amount-mixed solution (emulsion) of a 4 mg/mL bovine type 2 collagen solution (Collagen Research Center) and a complete freund's adjuvant (DIFCO Inc.) (Initial immunization). After 21 days therefrom, the mice were intracutaneously injected in the base of the tail with 100 μL/body of the equal amount-mixed solution (emulsion) of a 4 mg/mL of bovine type 2 collagen solution (Collagen Research Center) and a complete freund's adjuvant (DIFCO Inc.) to carry out an additional immunization. […] Symptoms of arthritis in day 0, day 4, day 7, day 11, and day 14 were scored with the naked eye (0: No change, 1: Swelling of a finger, 2: Swelling of two fingers or more, 3: Swelling of instep, 4: Swelling of all fingers besides swelling extending to wrist/ankle), and a total of four limbs was obtained as a point of an individual (maximum 16 points).

[7] = system: mouse collagen-induced arthritis model; assay: Mouse collagen-induced arthritis model (therapeutic effect), Test Example 7; type: in vivo; settings: once-a-day oral for 15 days from sixth day after additional immunization, FIG. 2
Procedure: as §1

[8] = Rattus norvegicus, RBL-2H3, RBL-2H3 cells
[9] = repeated administration for two weeks

| IC50 [1, 8] [nM] | IC50 [4] [nM] | IC50 ([1]; RBL-2H3 cells) [nM] | Structure (SMILES) | Relative body weight change ratio (%) [2] [%] | Ear swelling control ratio (%) ([3]; 1 mg/kg oral) | Ear swelling control ratio (%) ([3]; 3 mg/kg oral) | ear swellings induced by the allergen application ([3]; from low dose, compared with Reference compound 1) | remarkable decrease in body weight [5] | arthritis score [6] | arthritis score [7] | loose bowel [2, 9] | rat body weight increase compared with the vehicle-administered group [2, 9] |
| --- | --- | --- | --- | --- | --- | --- | --- | --- | --- | --- | --- | --- |
| 15 | 0.18 | – | C=CC(=O)N1CCC[C@@H](n2nc(C(=O)Nc3nc4cc(F)ccc4o3)c3c(N)ncnc32)C1 [Example 12, (R)-1-(1-acryloylpiperidin-3-yl)-4-amino-N-(5-fluorobenzo[d]oxazol-2-yl)-1H-pyrazolo[3,4-d]pyrimidine-3-carboxamide] | 91.2 | 64 | 80 | suppressed equivalently or strongly ear swellings | – | – | – | – | – |
| 26 | 0.25 | – | C=CC(=O)N1CCC[C@@H](n2nc(C(=O)Nc3nc4ccccc4o3)c3c(N)ncnc32)C1 [Example 13, (R)-1-(1-acryloylpiperidin-3-yl)-4-amino-N-(benzo[d]oxazol-2-yl)-1H-pyrazolo[3,4-d]pyrimidine-3-carboxamide] | 79.1 | 54 | 79 | – | not recognized | – | – | – | – |
| ~350 | – | 348 | C=CC(=O)N1CCC[C@@H](n2nc(-c3ccc(Oc4ccccc4)cc3)c3c(N)ncnc32)C1 [Reference compound 1, (R)-1-(3-(4-amino-3-(4-phenoxyphenyl)-1H-pyrazolo[3,4-d]pyrimidin-1-yl)piperidin-1-yl)prop-2-en-1-one, reference compound] | – | – | – | – | – | delayed the further increase of the increased arthritis score | delayed the further increase of the increased arthritis score | individuals suffering from loose bowel were recognized | very small |
